Tested on: C. albicans wildtype and DNA repair mutants
Test: Fungicidal killing, CFU assay
Format: cell-based
Conditions: C. albicans rad50/rad50 and rad52/rad52, 3 hours of drug exposure
Procedure: Overnight yeast cultures were diluted into the indicated media and grown to an OD600 of 0.2, at which point the AFs were added. Colony forming units (CFU) were measured by plating six serial dilutions onto YPD agar plates.
Overnight yeast cultures were diluted into the indicated media and grown to an OD600 of 0.2, at which point the AFs were added. Colony forming units (CFU) were measured by plating six serial dilutions onto YPD agar plates. Cells treated with MCZ were washed before serial dilution to stop growth inhibition associated with high concentrations of MCZ. CFU were counted after three days of incubation on agar plates. When indicated, thiourea (Fluka) was added 30 min prior to the addition of AFs. HPF (10 μM) (Invitrogen) and Mito Tracker (1 μM) (Invitrogen) dyes were added to PBS-washed cells at the indicated time points and incubated for 30 min prior to flow cytometry measurements, which were taken on the FACSCalibur (Becton-Dickinson). All experiments described in this section were conducted in 0.5 ml of SDC in 24-well plates incubated at 900 rpm and 37° C. for C. albicans and 30° C. and 300 rpm for S. cerevisiae. TUNEL assays were conducted as previously described (Ribeiro et al., 2006) and are described in detail in the TUNEL section of the Experimental Procedures.

C[C@@H]1[C@H](O)[C@@H](C)/C=C/C=C/C=C/C=C/C=C/C=C/C=C/[C@H](O[C@@H]2O[C@H](C)[C@@H](O)[C@H](N)[C@@H]2O)C[C@@H]2O[C@](O)(C[C@@H](O)C[C@@H](O)[C@H](O)CC[C@@H](O)C[C@@H](O)CC(=O)O[C@H]1C)C[C@H](O)[C@H]2C(=O)O [AMB, amphotericin B]
susceptibility of DSBR mutants compared to wildtype: particularly susceptible

From patent US20150366890A1, “COMPOSITIONS AND METHODS FOR TREATING FUNGAL INFECTIONS” (TRUSTEES OF BOSTON UNIVERSITY, priority 2013, published 2015)
